Source: publication PMC8508980, “Design, Synthesis and Anticancer Profile of New 4-(1H-benzo[d]imidazol-1-yl)pyrimidin-2-amine-Linked Sulfonamide Derivatives with V600EBRAF Inhibitory Effect” (International Journal of Molecular Sciences, 2021)

Tests used:
Assay in all cases: NCI 60 cell line screen
Assay type in all cases: cell-based
SN12C = details: Homo sapiens, Renal Cancer, read-out: Percent growth
Method: (§1) Anticancer profiling over a panel of 60 cancer cell lines was carried out at the National Cancer Institute (NCI), Bethesda, Maryland, USA, https://dtp.cancer.gov/discovery_development/nci-60/methodology.htm (Last visit 22 September 2021), using the standard procedure (detailed procedure is located in the Supplementary Information page 50 s).
(§2) NCI standard procedure for 60 cell lines assay
(§3) The human tumor cell lines of the cancer screening panel are grown in RPMI 1640 mediu m containing 5% fetal bovine serum and 2 mM L-glutamine. For a typical screening experiment, cells are inoculated into 96 well microtiter plates in 100 μL at plating densities ranging from 5,000 to 40,000 cells/well depending on the doubling time of individual cell lines. After cell inoculation, the microtiter plates are incubated at 37° C, 5 % CO2, 95 % air and 100 % relative humidity for 24 h prior to addition of experimental drugs.
(§4) After 24 h, two plates of each cell line are fixed in situ with TCA, to represent a measurement of the cell population for each cell line at the time of drug addition (Tz). Experimental drugs are solubilized in dimethyl sulfoxide at 400-fold the desired final maximum test concentration (10 µM) and stored frozen prior to use. At the time of drug addition, an aliquot of frozen concentrate is thawed and diluted to twice the desired final maximum test concentration with co mp lete medium containing 50 μg/ml gentamicin. Additional four, 10-fold or ½ log serial dilutions are made to provide a total of five drug concentrations plus control. Aliquots of 100 μl of these different drug dilutions are added to the appropriate microtiter wells already containing 100 μl of medium, resulting in the required final drug concentrations.
(§5) Following drug addition, the plates are incubated for an additional 48 h at 37°C, 5 % CO2, 95 % air, and 100 % relative humidity. For adherent cells, the assay is terminated by the addition of cold TCA. Cells are fixed in situ by the gentle addition of 50 μl of cold 50 % (w/v) TCA (final concentration, 10 % TCA) and incubated for 60 minutes at 4°C. The supernatant is discarded, and the plates are washed five times with tap water and air dried. Sulforhodamine B (SRB) solution (100 μl) at 0.4 % (w/v) in 1 % acetic acid is added to each well, and plates are incubated for 10 minutes at room temperature. After staining, unbound dye is removed by washing five times with 1 % acetic acid and the plates are air dried. Bound stain is subsequently solubilized with 10 mM trizma base, and the absorbance is read on an automated plate reader at a wavelength of 515 nm. For suspension cells, the methodology is the same except that the assay is terminated by fixing settled cells at the bottom of the wells by g ently adding 50 μl of 80 % TCA (final concentration, 16 % TCA). Using the seven absorbance measurements [time zero, (Tz), control growth, (C), and test growth in the presence of drug at the five concentration levels (Ti)], the percentage growth is calculated at each of the drug concentrations levels. Percentage growth inhibition is calculated as:
(§6) [(Ti-Tz)/(C-Tz)] x 100 for concentrations for which Ti>/=Tz
(§7) [(Ti-Tz)/Tz] x 100 for concentrations for which Ti<Tz.
(§8) Three dose response parameters are calculated for each experimental agent. Growth inhibition of […]
(§9) resulting in a 50% reduction in the net protein increase (as measured by SRB staining) in control cells during the drug incubation. The drug concentration resulting in total growth inhibition […]
(§10) (TGI) is calculated from Ti = Tz.

OVCAR-3 = details: Homo sapiens; OVCAR-3, Ovarian Cancer; read-out: Percent growth
Method: as §1, §2, §3, §4, §5, §6, §7, §8, §9, §10

IGROV1 = details: Homo sapiens, IGROV-1; IGROV1, Ovarian Cancer; read-out: Percent growth
Method: as §1, §2, §3, §4, §5, §6, §7, §8, §9, §10

DU-145 = details: Homo sapiens; DU-145, Prostate Cancer; read-out: Percent growth
Method: as §1, §2, §3, §4, §5, §6, §7, §8, §9, §10

786-0 = details: Homo sapiens; 786-0, Renal Cancer; read-out: Percent growth
Method: as §1, §2, §3, §4, §5, §6, §7, §8, §9, §10

CCRF-CEM = details: Homo sapiens, Leukemia, read-out: Percent growth
Method: as §1, §2, §3, §4, §5, §6, §7, §8, §9, §10

MCF7 = details: Homo sapiens; MCF7, Breast Cancer; read-out: Percent growth
Method: as §1, §2, §3, §4, §5, §6, §7, §8, §9, §10

TK-10 = details: Homo sapiens; TK-10, Renal Cancer; read-out: Percent growth
Method: as §1, §2, §3, §4, §5, §6, §7, §8, §9, §10

SNB-19 = details: Homo sapiens; SNB-19, CNS-Cancer; read-out: Percent growth
Method: as §1, §2, §3, §4, §5, §6, §7, §8, §9, §10

ACHN = details: Homo sapiens, Renal Cancer, read-out: Percent growth
Method: as §1, §2, §3, §4, §5, §6, §7, §8, §9, §10

HL-60(TB) = details: Homo sapiens, Leukemia, read-out: Percent growth
Method: as §1, §2, §3, §4, §5, §6, §7, §8, §9, §10

MALME-3M = details: Homo sapiens, Melanoma, read-out: Percent growth
Method: as §1, §2, §3, §4, §5, §6, §7, §8, §9, §10

UACC-62 = details: Homo sapiens; UACC-62, Melanoma; read-out: Percent growth
Method: as §1, §2, §3, §4, §5, §6, §7, §8, §9, §10

COLO 205 = details: Homo sapiens; COLO 205, Colon Cancer; read-out: Percent growth
Method: as §1, §2, §3, §4, §5, §6, §7, §8, §9, §10

HOP-62 = details: Homo sapiens; HOP-62, Non-Small Cell Lung Cancer; read-out: Percent growth
Method: as §1, §2, §3, §4, §5, §6, §7, §8, §9, §10

A498 = details: Homo sapiens; A498, Renal Cancer; read-out: Percent growth
Method: as §1, §2, §3, §4, §5, §6, §7, §8, §9, §10

LOX IMVI = details: Homo sapiens, Melanoma, read-out: Percent growth
Method: as §1, §2, §3, §4, §5, §6, §7, §8, §9, §10

SK-MEL-28 = details: Homo sapiens; SK-MEL-28, Melanoma; read-out: Percent growth
Method: as §1, §2, §3, §4, §5, §6, §7, §8, §9, §10

HCC-2998 = details: Homo sapiens; HCC-2998, Colon Cancer; read-out: Percent growth
Method: as §1, §2, §3, §4, §5, §6, §7, §8, §9, §10

SK-OV-3 = details: Homo sapiens; SK-OV-3, Ovarian Cancer; read-out: Percent growth
Method: as §1, §2, §3, §4, §5, §6, §7, §8, §9, §10

HS 578T = details: Homo sapiens, Breast Cancer, read-out: Percent growth
Method: as §1, §2, §3, §4, §5, §6, §7, §8, §9, §10

A549/ATCC = details: Homo sapiens, Non-Small Cell Lung Cancer, read-out: Percent growth
Method: as §1, §2, §3, §4, §5, §6, §7, §8, §9, §10

MDA-MB-231/ATCC = details: Homo sapiens, Breast Cancer, read-out: Percent growth
Method: as §1, §2, §3, §4, §5, §6, §7, §8, §9, §10

| Compound | activity at 10 µM (SN12C) [%] | activity at 10 µM (OVCAR-3) [%] | activity at 10 µM (IGROV1) [%] | activity at 10 µM (DU-145) [%] | activity at 10 µM (786-0) [%] | activity at 10 µM (CCRF-CEM) [%] | activity at 10 µM (MCF7) [%] | activity at 10 µM (TK-10) [%] | activity at 10 µM (SNB-19) [%] | activity at 10 µM (ACHN) [%] | activity at 10 µM (HL-60(TB)) [%] | activity at 10 µM (MALME-3M) [%] | activity at 10 µM (UACC-62) [%] | activity at 10 µM (COLO 205) [%] | activity at 10 µM (HOP-62) [%] | activity at 10 µM (A498) [%] | activity at 10 µM (LOX IMVI) [%] | activity at 10 µM (SK-MEL-28) [%] | activity at 10 µM (HCC-2998) [%] | activity at 10 µM (SK-OV-3) [%] | also measured |
| --- | --- | --- | --- | --- | --- | --- | --- | --- | --- | --- | --- | --- | --- | --- | --- | --- | --- | --- | --- | --- | --- |
| O=S(=O)(NCCCNc1nccc(-n2cnc3ccccc32)n1)c1ccc(F)cc1 [12i, N-(3-((4-(1H-benzo [d]imidazol-1-yl)pyrimidin-2-yl)amino)propyl)-4-fluorobenzenesulfonamide] | 89 | 86.7 | 91.8 | 87.2 | 97.7 | 49 | 63.7 | 91.9 | 92.6 | 81.2 | 90.9 | 86.1 | 61.6 | 86 | 82.7 | 70.5 | 74 | 97.9 | 102 | 85.2 | activity at 10 µM (HS 578T): 82.4%; activity at 10 µM (A549/ATCC): 88.8%; activity at 10 µM (MDA-MB-231/ATCC): 74.4% |
| O=S(=O)(NCCNc1nccc(-n2cnc3ccccc32)n1)c1ccc(F)cc1 [12b, N-(2-((4-(1H-benzo [d]imidazol-1-yl)pyrimidin-2-yl)amino)ethyl)-4-fluorobenzenesulfonamide] | 89.7 | 106 | 89.3 | 91.5 | 102 | 93.5 | 87.7 | 97.8 | 93 | 88.3 | 106 | 93.7 | 71.3 | 102 | 90.9 | 80.7 | 93.2 | 101 | 104 | 102 | activity at 10 µM (HS 578T): 85.5%; activity at 10 µM (A549/ATCC): 91.3%; activity at 10 µM (MDA-MB-231/ATCC): 81.8% |
| O=S(=O)(NCCNc1nccc(-n2cnc3ccccc32)n1)c1ccc(Br)cc1 [12d, N-(2-((4-(1H-benzo [d]imidazol-1-yl)pyrimidin-2-yl)amino)ethyl)-4-bromobenzenesulfonamide] | 91.5 | 103 | 90.7 | 99.9 | 103 | 101 | 78.4 | 103 | 101 | 93.6 | 114 | 103 | 82.8 | 107 | 87.2 | 76.3 | 99.1 | 108 | 103 | 99.9 | activity at 10 µM (HS 578T): 85.7%; activity at 10 µM (A549/ATCC): 100%; activity at 10 µM (MDA-MB-231/ATCC): 88.2% |
| Cc1ccc(S(=O)(=O)NCCNc2nccc(-n3cnc4ccccc43)n2)cc1 [12g, N-(2-((4-(1H-benzo [d]imidazol-1-yl)pyrimidin-2-yl)amino)ethyl)-4-methyl benzenesulfonamide] | 79 | 82 | 75.2 | 89.3 | 85.4 | 69.5 | 67.9 | 83.7 | 86.8 | 73 | 91.2 | 90.2 | 53 | 86.8 | 69.6 | 62.1 | 75.2 | 94.4 | 93.1 | 79.5 | activity at 10 µM (HS 578T): 64.2%; activity at 10 µM (A549/ATCC): 82.4%; activity at 10 µM (MDA-MB-231/ATCC): 62.5% |
| O=S(=O)(NCCNc1nccc(-n2cnc3ccccc32)n1)c1ccccc1 [12a, N-(2-((4-(1H-benzo [d]imidazol-1-yl)pyrimidin-2-yl)amino)ethyl)benzenesulfonamide] | 85.1 | 109 | 89.9 | 109 | 103 | 96 | 89.3 | 104 | 99.6 | 94.2 | 113 | 101 | 78.3 | 101 | 90.7 | 88.6 | 95 | 108 | 106 | 101 | activity at 10 µM (HS 578T): 93.5%; activity at 10 µM (A549/ATCC): 104%; activity at 10 µM (MDA-MB-231/ATCC): 87.6% |
| O=S(=O)(NCCCNc1nccc(-n2cnc3ccccc32)n1)c1cccc2ccccc12 [12n, N-(3-((4-(1H-benzo [d]imidazol-1-yl)pyrimidin-2-yl)amino)propyl)naphthalene-1-sulfonamide] | 85.9 | 96.8 | 98.1 | 94.5 | 91.2 | 70.9 | 83.4 | 95.7 | 94.2 | 87.1 | 101 | 98.4 | 62 | 96.4 | 87.1 | 72.1 | 85.6 | 103 | 112 | 92.5 | activity at 10 µM (HS 578T): 78.3%; activity at 10 µM (A549/ATCC): 86.3%; activity at 10 µM (MDA-MB-231/ATCC): 83.1% |
